{"source": "patent US6727278B1", "about": "“Pharmaceutically active agents that impede amyloid formation in vivo” (DMS Pharmaceutical Inc., priority 1986, dated 2004)", "key": {"human DMS": {"system": "human DMS", "test": "In vivo assay: amyloid formation induced by intracerebral injection of human DMS with the compound, Congo Red histology", "parameters": "species or system Male Wistar rats", "conditions": "for Mean Lesion Area Composed of CBADs: percentage of lesion area, ** = significant decrease from untreated controls; for inhibition of amyloid formation in vivo: in-tissue levels in the range of 10^−5 to 10^−6 M"}, "[1]": {"conditions": "cited from earlier work"}, "DMS (dense microspheres)": {"system": "DMS (dense microspheres)", "test": "Test 1: in vitro disruption of DMS on a glass slide, Congo Red red-green birefringence", "conditions": "for activity in the in vitro assay: 10^−2-to-10^−3 M concentration range; for anti-amyloid activity in vitro: concentration of about 10^−2 M", "source_text": "TEST 1 In vitro Disruption of DMS on a Glass Slide\nHomogeneous DMS preparations are placed by droplet on a clean dry glass slide. The volume and number of DMS used is optional but is recommended to be at least several thousand to facilitate interpretation (see Example 1 below). Larger samples are more costly but are easier and more unequivocal to examine. The DMS are mechanically disrupted using a stainless steel spatula scraping and pressing the DMS against a glass slide in repetitive manual back and forth motions for one minute. The slide is allowed to air dry. A few drops of Congo Red stain are then added to the dried slide and gently passed over the dried disrupted DMS for 30 seconds and the stain is then drained off the slide onto tissue paper or filter paper. The slide is then examined in the light microscope, the latter fitted with crossed polarizing lenses to assess red-green congophilic birefringence.\nThe result is an unequivocal red-to-green (“apple green”) birefringence similar to the red-to-apple green birefringence found in the senile-plaque amyloid of Alzheimer patients, and in quantities proportional to the volume of DMS applied to the slide initially.\nFor test purposes, a corresponding DMS sample is contacted with a possible pharmacological agent, and the DMS disruption/staining procedure as described above is repeated. Many variations are possible, e.g., the active agent may be applied to the DMS in solution, before application to the slide, or to the DMS on the slide. In any event, if the agent prevents the red-green birefringence observed in the negative control slide (no agent present), then the active agent should be tested further for efficacy against cerebral amyloidosis.\nApproximately 80,000 homogeneously extracted DMS were placed in a droplet from a Pasteur pipette onto a glass slide, and the droplet was air dried. The DMS adhered to the glass slide. Acetylcholine (20 mM) in physiological saline was added in a droplet, as a possible test compound, to DMS.\nThe DMS were mechanically disrupted, in the presence of the test compound, as described above and then were allowed to air dry. A control slide was treated exactly in the same manner, except that the test compound was not added. Congo Red stain was added, and the reaction products were examined, as previously described."}, "[2]": {"conditions": "cited from earlier work", "remark": "listed apart in the source"}, "[3]": {"conditions": "10^−5 − 10^−6M, CBADs = Congophilic Birefringent Amyloid Deposits"}}}
{"smiles": "Cc1noc(NS(=O)(=O)c2ccc(N)cc2)c1C", "note": "[Gantrisin, Sulfisoxazole]", "values": [{"measurement": "Mean Number of CBADs Per Animal", "setting": "human DMS; 10^−2M", "value": 1}, {"measurement": "Mean Lesion Area Composed of CBADs", "setting": "human DMS; 10^−2M", "value": "0.1**"}, {"measurement": "Mean Number of CBADs Per Animal", "setting": "human DMS; [3]", "value": 108}, {"measurement": "Mean Lesion Area Composed of CBADs", "setting": "human DMS; 10^−5 − 10^−6M", "value": 8.4}, {"measurement": "absorption and excretion", "setting": "[1]; route not stated", "value": "rapidly absorbed and excreted"}]}
{"smiles": "O=P(O)(O)O[C@H]1[C@H](OP(=O)(O)O)[C@@H](OP(=O)(O)O)[C@H](OP(=O)(O)O)[C@@H](OP(=O)(O)O)[C@H]1OP(=O)(O)O", "note": "[phytic acid]", "values": [{"measurement": "activity in the in vitro assay", "setting": "DMS (dense microspheres)", "value": "not to be active"}]}
{"smiles": "Cc1cc(Cl)nc(N)n1", "note": "[2-amino-4-chloro-6-methyl pyrimidine]", "values": [{"measurement": "anti-amyloid activity in vitro", "setting": "DMS (dense microspheres)", "value": "anti-amyloid activity"}]}
{"smiles": "Cl.Nc1c2c(nc3ccccc13)CCCC2", "note": "[THA, 9-amino-1,2,3,4-tetrahydroacridine hydrochloride]", "values": [{"measurement": "anti-amyloid activity in vitro", "setting": "DMS (dense microspheres)", "value": "anti-amyloid activity"}]}
{"smiles": "Nc1nc(O)nc2[nH]ncc12", "note": "[4-amino-6-hydroxypyrazolo [3,4-D] pyrimidine]", "values": [{"measurement": "anti-amyloid activity in vitro", "setting": "DMS (dense microspheres)", "value": "anti-amyloid activity"}]}
{"smiles": "CC[C@H]1OC(=O)[C@H](C)[C@@H](O[C@H]2C[C@@](C)(OC)[C@@H](O)[C@H](C)O2)[C@H](C)[C@@H](O[C@@H]2O[C@H](C)C[C@H](N(C)C)[C@H]2O)[C@](C)(O)C[C@@H](C)C(=O)[C@H](C)[C@@H](O)[C@]1(C)O", "note": "[erythromycin, Erythromycin]", "values": [{"measurement": "Mean Number of CBADs Per Animal", "setting": "human DMS; [3]", "value": 2}, {"measurement": "Mean Lesion Area Composed of CBADs", "setting": "human DMS; 10^−5 − 10^−6M", "value": "0.2**"}, {"measurement": "inhibition of amyloid formation in vivo", "setting": "human DMS", "value": "inhibit amyloid formation in vivo"}, {"measurement": "half-life", "setting": "[1]; in vivo", "value": "about sixteen"}, {"measurement": "solubility in water", "setting": "[2]", "value": "water-soluble"}]}
{"smiles": "O=C(O)c1cccnc1C(=O)O", "note": "[2,3-pyridine-dicarboxylic acid]", "values": [{"measurement": "anti-amyloid activity in vitro", "setting": "DMS (dense microspheres)", "value": "anti-amyloid activity"}]}
{"smiles": "CCCC(CCC)C(=O)O", "note": "[valproic acid]", "values": [{"measurement": "activity in the in vitro assay", "setting": "DMS (dense microspheres)", "value": "inactive"}]}
{"smiles": "OCCN(CCO)c1nc(N2CCCCC2)c2nc(N(CCO)CCO)nc(N3CCCCC3)c2n1", "note": "[Persantine, 2,6-bis-(diethanolamino)-4,8-dipiperidinopyrimido-(5,4-d)-pyrimidine]", "values": [{"measurement": "Mean Number of CBADs Per Animal", "setting": "human DMS; 10^−2M", "value": 4}, {"measurement": "Mean Lesion Area Composed of CBADs", "setting": "human DMS; 10^−2M", "value": "0.2**"}, {"measurement": "Mean Number of CBADs Per Animal", "setting": "human DMS; [3]", "value": 146}, {"measurement": "Mean Lesion Area Composed of CBADs", "setting": "human DMS; 10^−5 − 10^−6M", "value": 14.6}]}
{"smiles": "O=C([O-])c1cc(=O)c2c(OCC(O)COc3cccc4oc(C(=O)[O-])cc(=O)c34)cccc2o1.[Na+].[Na+]", "note": "[Intal, Cromolyn Sodium]", "values": [{"measurement": "Mean Number of CBADs Per Animal", "setting": "human DMS; [3]", "value": 2}, {"measurement": "Mean Lesion Area Composed of CBADs", "setting": "human DMS; 10^−5 − 10^−6M", "value": "0.4**"}, {"measurement": "fraction entering the lungs", "setting": "[1]; administered as a powder from an inhaler", "value": "about 10%"}, {"measurement": "oral absorption", "setting": "[1]", "value": "poorly absorbed orally"}]}
{"smiles": "CN(C)C(=O)Oc1cccc([N+](C)(C)C)c1", "note": "[neostigmine methylsulfate]", "values": [{"measurement": "activity in the in vitro assay", "setting": "DMS (dense microspheres)", "value": "not to be active"}]}
{"smiles": "NC(=O)N1c2ccccc2C=Cc2ccccc21", "note": "[carbamazepine]", "values": [{"measurement": "activity in the in vitro assay", "setting": "DMS (dense microspheres)", "value": "inactive"}]}
{"smiles": "CN(C)C(=O)Oc1ccc[n+](C)c1", "note": "[pyridostigmine bromide]", "values": [{"measurement": "activity in the in vitro assay", "setting": "DMS (dense microspheres)", "value": "not to be active"}]}
{"smiles": "CCc1nc(N)nc(N)c1-c1ccc(Cl)cc1", "note": "[Daraprim, Pyrimethamine]", "values": [{"measurement": "Mean Number of CBADs Per Animal", "setting": "human DMS; [3]", "value": 4}, {"measurement": "Mean Lesion Area Composed of CBADs", "setting": "human DMS; 10^−5 − 10^−6M", "value": "0.2**"}, {"measurement": "inhibition of amyloid formation in vivo", "setting": "human DMS", "value": "inhibit amyloid formation in vivo"}, {"measurement": "oral absorption", "setting": "[1]", "value": "completely absorbed orally"}]}
{"smiles": "O=C1N(Cc2ccccc2)C2C[S+]3CCCC3C2N1Cc1ccccc1", "note": "(stereo not shown) [trimethophan camsylate]", "values": [{"measurement": "activity in the in vitro assay", "setting": "DMS (dense microspheres)", "value": "inactive"}]}
{"smiles": "CSc1ccc2c(c1)N(CCC1CCCCN1C)c1ccccc1S2", "note": "(stereo not shown) [thioridazine]", "values": [{"measurement": "activity in the in vitro assay", "setting": "DMS (dense microspheres)", "value": "inactive"}]}
{"smiles": "O=c1n(CCCN2CCN(c3cccc(Cl)c3)CC2)nc2ccccn12", "note": "[trazodone]", "values": [{"measurement": "activity in the in vitro assay", "setting": "DMS (dense microspheres)", "value": "inactive"}]}
